The values that follow come from USRE29244E, “Coccidiostats” (priority 1976, dated 1977).

Assay in all cases: Antimicrobial spectrum, plate assay
Holding throughout (assay type): cell-based

The subject of experiment [1] is Mycobacterium phlei. On the procedure: (§1) The following table summarizes the antimicrobial spectrum of antibiotic X-537A:
(§2) Antimicrobial spectrum of antibiotic X-537A
(§3) Test organism: Plate units per mg.
(§4) The antibiotic can be prepared by growing the Streptomyces organisms in an aerated submerged culture. This can be done in either a shaken flask or in 50-1,000 gallon stainless steel and iron fermentation tanks. The broths are adjusted to a pH which is about neutral, i.e., 6.5-7.5 prior to be sterilized and are then incubated at slightly elevated temperatures, e.g., about 27° to 30° C., after being inoculated with spore suspensions or vegetative growth. The reaction broth is then filtered and the active material is extracted with a suitable solvent, preferably methanol, n-butanol or butyl acetate. The antibiotic activity is followed by cup-plate agar diffusion assay in which the test organism Bacillus E is employed. In general, the concentration of antibiotic required to produce an inhibition zone of 20-22 mm. in diameter with any of the test organisms is considered to be 1 unit per ml. Whole broths are diluted for assay in 1% phosphate buffer, pH 6.0.

Experiment [2] has as its system Sarcina lutea. On the procedure:
as §1, §2, §3, §4

The subject of experiment [3] is Saccharomyces cerevisiac. On the procedure: as §1, §2, §3, §4
The subject of experiment [4] is Bacillus simplex. On the procedure: as §1, §2, §3, §4
For experiment [5], the system named is Bacillus mesentericus. On the procedure:
as §1, §2, §3, §4

For experiment [6], the system named is Scopulariopsis brevicaulis. On the procedure: as §1, §2, §3, §4
Experiment [7] has as its system Bacillus cereus. On the procedure:
as §1, §2, §3, §4

Experiment [8] has as its system Staphylococcus aureus. On the procedure: as §1, §2, §3, §4
Experiment [9] deals with Bacillus E. On the procedure: as §1, §2, §3, §4
In experiment [10] the test system is Corynebacterium simplex. On the procedure: as §1, §2, §3, §4

`CCC(C(=O)C(C)C(O)C(C)CCc1ccc(C)c(O)c1C(=O)O)C1OC(CC)(C2CCC(O)(CC)C(C)O2)CC1C` (stereo not drawn) [antibiotic X-537A]: the Antimicrobial activity stood at 20 Plate units per mg in experiment [1]; 500 Plate units per mg in [2]; 0 Plate units per mg in [3]; 20 Plate units per mg in experiment [4]; 50 Plate units per mg in experiment [5]; 0 Plate units per mg in [6]. In addition, the Antimicrobial activity in experiment [7] was found to be 120 Plate units per mg; in experiment [8] it was 20 Plate units per mg; in [9] (Bacillus E), 800 Plate units per mg; in experiment [10], 20 Plate units per mg. The “Bacillus E assay” value stood at 500 E units per mg in [9] (crystalline material from petroleum ether (contained sodium)) and 800 E units per mg in experiment [9] (free acid recrystallized from ethanol).
